Data on 13 molecules can be found in PubChem BioAssay (NCI).

What all share (experiment): inhibition of tumour cell growth, NCI panel, 48 h
For assay [1], the system named is HL-60(TB) leukemia.
In assay [2] the test system is M14 melanoma.
Assay [3] relates to MOLT-4 leukemia.
Assay [4] deals with NCI-H23 lung.
Assay [5] has as its system SF-268 CNS.
Assay [6] deals with SF-539 CNS.
Assay [7] relates to SK-MEL-5 melanoma.
Assay [8] concerns SK-OV-3 ovarian.
Assay [9] deals with U251 CNS.
Assay [10] has as its system RXF 393 renal.

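Five compound concentrations were applied to cells in 96-well plates for 48 hours; endpoints were derived by simple linear interpolation of the resulting dose-response curve. GI50 is the concentration that inhibits growth by half. Definition used: TGI = concentration required for complete inhibition of growth.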

Take `Cc1c(-c2c(C)c3ccccc3n2S(=O)(=O)c2ccccc2)n(S(=O)(=O)c2ccccc2)c2ccccc12`: the TGI in [1], in [2], in [3], in [4], in [5] and in assay [6] was greater than 100 µM each time. In addition, the TGI in [7] is greater than 94.1 µM; in assay [8], greater than 100 µM; in assay [9], greater than 100 µM.

Take `CCC(CCCN)Nc1cc(OC)cc2cccnc12` (stereo unspecified): the TGI in [1] was 51.1 µM; in [2], greater than 100 µM; in assay [10], greater than 100 µM; in assay [5], greater than 100 µM; in [6], greater than 100 µM; in assay [7], greater than 100 µM. In addition, the TGI in [8] was greater than 100 µM.

As to `C=CC(=O)N1C/C(=C\c2ccc(N(C)C)cc2)C(=O)/C(=C/c2ccc(N(C)C)cc2)C1`, the TGI in assay [2], in assay [3], in [4], in assay [10], in [5] and in assay [6] was greater than 100 µM throughout. For the same molecule, the TGI in [7] and in [9] was greater than 100 µM in each case.

With `CC(=O)O[C@H]1CC[C@@]2(C)C(=CC[C@@H]3[C@@H]2CC[C@]2(C)C(c4cccnc4)=CC[C@@H]32)C1`, the GI50 is 7.36 µM in assay [1]; 5.67 µM in assay [2]; 6.3 µM in assay [3]; 6.6 µM in assay [4]; 9.61 µM in assay [5]; 3.14 µM in assay [6]. For the same molecule, the figures for the GI50 in [7], in assay [8] and in [9] were 2.89 µM, 5.83 µM and 4.47 µM, respectively. For the same molecule, the TGI in assay [1], in [2], in assay [3], in [4], in [5] and in assay [6] was greater than 100 µM each time. For the same molecule, the TGI in assay [7] was 10.1 µM; in assay [8], 95.8 µM; in assay [9], greater than 100 µM.

On to `Oc1ccc(Cl)cc1C1=N/C(=N\CN2CCN(C/N=C3/N=C(c4cc(Cl)ccc4O)CC(c4ccccc4)N3)CC2)NC(c2ccccc2)C1` (stereo unspecified), for which the TGI in [1] was greater than 100 µM; in assay [2], greater than 100 µM; in [4], greater than 100 µM; in assay [10], 43.3 µM; in assay [5], greater than 100 µM; in assay [6], greater than 100 µM. Also, the TGI in assay [7], in assay [8] and in assay [9] was greater than 100 µM throughout.

Consider `COC1C(O)CC(OC2C(C)OC(Oc3cc(O)c4c(O)c5c(cc4c3)C[C@@H]([C@H](OC)C(=O)[C@@H](O)[C@@H](C)O)[C@H](OC3CC(OC4CC(OC6CC(C)(O)C(O)C(C)O6)C(O)C(C)O4)C(O)C(C)O3)C5=O)CC2OC(C)=O)OC1C` (stereo partly specified), for which the TGI in assay [1], in [3], in [4], in [5], in assay [6] and in assay [7] was greater than 100 µM in each case. Further, the TGI in assay [8] and in assay [9] was greater than 100 µM each time.

Consider `CCCCOC(=O)CNC(=O)OCCCCC#CC#CCCCCOC(=O)NCC(=O)OCCCC`, for which the TGI in assay [1], in assay [2], in assay [3], in [4], in assay [5] and in [6] was greater than 100 µM throughout. The TGI in assay [7], in assay [8] and in [9] was greater than 100 µM throughout.

Regarding `O=C(NCCN(CCNC(=O)c1cccc(=O)n1O)CCN(CCNC(=O)c1cccc(=O)n1O)CCNC(=O)c1cccc(=O)n1O)c1cccc(=O)n1O`, the TGI in assay [1], in assay [2], in assay [4], in assay [10], in assay [5] and in [6] was greater than 100 µM each time. Besides, the TGI in assay [7], in assay [8] and in assay [9] was greater than 100 µM each time.

Regarding `Cc1ccc2c(=O)cc(-c3csc4ccccc34)[nH]c2n1`, the TGI in [1] is 0.0258 µM; in [2], 0.031 µM; in assay [3], 1.09 µM; in assay [4], 2.51 µM; in assay [5] it was greater than 53.2 µM; in [6], less than 0.0133 µM. Also, the figures for the TGI in assay [7], in assay [8] and in assay [9] were 1.05 µM, greater than 32 µM and 0.0783 µM, respectively.

Take `CCC(C)[C@H](NC(=O)N[C@H](C)c1ccccc1)C(=O)OC` (stereo partly specified): the TGI in assay [1], in [2], in assay [3], in assay [4], in assay [6] and in assay [7] was greater than 100 µM in each case. Besides, the TGI in assay [8] and in assay [9] was greater than 100 µM each time.

As to `C=CCC(C)C12CCNC(Cc3ccc(O)cc31)C2C` (stereo unspecified), the TGI in assay [2], in assay [3], in [4], in assay [10], in assay [5] and in assay [6] was greater than 100 µM each time. The TGI in [7], in assay [8] and in [9] was greater than 100 µM throughout.

As to `COc1ccc(N[C@H](CS(=O)c2ccc(C)cc2)c2ccc(F)cc2)cc1` (stereo partly specified), the TGI in assay [2] is greater than 100 µM; in [3] it was greater than 100 µM; in assay [4], greater than 100 µM; in assay [10] it was greater than 100 µM; in assay [5], 94.5 µM; in assay [6], 56.7 µM. For the same molecule, the TGI in assay [7], in assay [8] and in assay [9] was greater than 100 µM each time.

In the case of `N#CC1=C2Sc3ccccc3N2[C@H](c2ccccc2)[C@H]2COC(=O)[C@@H]12`, the TGI was greater than 100 µM in assay [2]; greater than 100 µM in [3]; greater than 100 µM in assay [4]; greater than 100 µM in [10]; 74.1 µM in assay [5]; greater than 100 µM in assay [6]. The TGI in assay [7], in assay [8] and in [9] was greater than 100 µM each time.
